The test has as its system M-NFS-60 cells. Kind of test: M-NFS-60 cell in vitro assay (CCK, 48 h, M-CSF factor medium). The format is cell-based. The conditions noted are these: M-NFS-60 cells; read-out: M-NFS-60cellassay IC50. The protocol: To determine the inhibitory activity of compounds on M-NFS-60 cells.
• M-NFS-60 cell line (ATCC, Cat. No.: CRL-1838) • RPMI-1640 medium (Gibco, domestic subpackage, Cat. No.: C11875500BT) • Recombinant Mouse CSF1/M-CSF (Sino Biological Inc., Cat. No.: 51112-MNAH) • PAN/Serum (BioTECH, Cat. No.: P30-2602) • Trypsin/0.05% Trypsin-EDTA (Gibco, Cat. No.: 25300-062) • 0.4% Trypan Blue (Sigma, Cat. No.: T8154-20 ml) • Penicillin-Streptomycin (Hyclone, Cat. No.: SV30010) • DMSO (Solarbio, Cat. No.: D8371) • PBS (Solarbio, Cat. No.: P1020) • CCK (AbMole BioScience, Cat. No.: M4839-500Tests)
• 1) M-CSF factor stock solution: take 10 μg of powdered m-CSF factor, add 0.4 ml of saline, formulate 25 ug/ml and store at −80° C. • 2) M-CSF factor (25 ng/ml) medium: • 1640 (Gibco)+10% PAN+100×Penicillin-Streptomycin+100×M-CSF stock solution • 3) Complete medium: • 1640 (Gibco)+10% PAN+100×Penicillin-Streptomycin • 4) Compound preparation: 2-3 mg of the compound was added to DMSO to formulate a 30 mM stock solution, −80° C. refrigerator storage
• 1) Cell resuscitation: the frozen cells in the cryovial were thawed rapidly by shaking in a 37° C. water bath, then 4 mL of medium was added. After mixing evenly, they were centrifuged at 125×g for 5 min, and the supernatant was discarded. The cells were resuspended and transferred to the culture flasks, and were cultured in a 5% CO2 fully saturated humidity incubator. • 2) Cell passaging: M-NFS-60 cells are semi-suspension cells, which were collected directly in a 15 mL centrifuge tube, centrifuged at 125×g for 5 min. and the supernatant was discarded. The cells were resuspended and passaged into new culture flasks at a ratio of 1:5 to 1:10. • 3) After the newly resuscitated cells were passaged 1-2 times for cell stabilization, compound inhibition assays were started when the cells were in the logarithmic growth phase. • (a) Cell collection and counting: the same as the cell passaging step, centrifuge in two tubes, one tube with M-CSF factor medium to resuspend the cells, the other tube with complete medium to resuspend the cells. Take 10 μL of cell suspension in each tube, and count the cells by Tepan blue staining. • (b) Dilute the cell solution according to the concentration of inoculated cells respectively, the concentration of M-NFS-60 cells inoculated with factor was 5.56×10^4 cells/mL, and the concentration of inoculated without factor was 5×10^4 cells/mL. • (c) Seed plate: 384 well plate inoculated with M-NFS-60 cells, 36 uL/well, triplicate wells, the number of inoculated cells was equivalent to 2000 cells/well, set with blank control, factor free negative control, normal control, DMSO control and experimental wells. The cells were placed in a 5% CO2 fully saturated humidity incubator for 4 h. • (d) Sampling compounds: 96 well plates were used for compound preparation. The compound solution prepared in advance was diluted to corresponding gradient concentration with DMSO. An appropriate amount of the diluted solution in the previous step was added to an equal volume of factor containing medium. The 96 well plates were centrifuged at 1000 rpm for 5 min, which played the role of defoaming and spinning down droplets and condensation. Remove the 384 well plate from the incubator, add the diluted compound solution into each well sequentially, 4 μL/well; DMSO wells and normal wells were added with corresponding factor containing medium, 4 μL/well. Then it was put into CO2 incubator for 48 h. • (e) After incubation for 48 h, CCK was added to each well, 4 uL, and the plates were placed in the incubator for another 2 h, and then the OD (optical density) value at 450 nm was measured by microplate reader.
The IC50 values for each test compound were fitted using professional graphing and analysis software.
For `Cn1cc(-c2cncc(NC3COc4c(NC(=O)c5ccc(C(F)(F)F)cc5)cccc43)c2)cn1` (stereo not drawn) [Compound 47, N-(3-((5-(1-methyl-1H-pyrazol-4-yl)pyridin-3-yl)amino)-2,3-dihydrobenzofuran-7-yl)-4-(trifluoromethyl)benzamide], the IC50 is 50 to 200 nM.

Take `COc1cc(NC(=O)c2cccc3c2CC[C@@H]3Nc2cncc(-c3cnn(C)c3)n2)ccc1F` [Compound 27o]: the half-maximal inhibitory concentration (IC50) was below 50 nM.

On to `Cc1cccc(C(=O)Nc2cccc3c2CCC3Nc2cncc(Br)c2)c1` (stereo not drawn) [Compound 8d, N-(1-((5-bromopyridin-3-yl)amino)-2,3-dihydro-1H-inden-4-yl)-3-methylbenzamide], for which the half-inhibitory concentration (IC50) lay within 50 to 200 nM.

Consider `CN1CCN(c2ccc(NC(=O)c3cccc4c3CC[C@@H]4Nc3cncc(-c4cnn(C)c4)c3)cc2)CC1` [Compound 14aq], for which the IC50 was in the range of 200 to 500 nM.

As to `Cn1cc(-c2cncc(N[C@H]3CCc4c(C(=O)Nc5ccccc5F)cccc43)c2)cn1` [Compound 14ae], the half-inhibitory concentration (IC50) is below 50 nM.

For the compound `Cc1cccc(C(=O)Nc2cccc3c2CC[C@@H]3Nc2cncc(N(C)CCN(C)C)n2)c1` [Compound 32, (S)—N-(1-((6-((2-(dimethylamino)ethyl)(methyl)amino)pyrazin-2-yl)amino)-2,3-dihydro-1H-inden-4-yl)-3-methylbenzamide], the IC50 was above 500 nM.

With `CN(C)C(=O)c1cccc2c1CC[C@@H]2Nc1cncc(-c2cnn(C)c2)n1` [Compound 27d], the IC50 is above 500 nM.

On to `Cn1cc(-c2cncc(O[C@H]3CCc4c(C(=O)Nc5cncc(F)c5)cccc43)c2)cn1` [Compound 19t], for which the IC50 was in the range of 50 to 200 nM.

Consider `Clc1cncc(N[C@H]2CCc3c(Nc4nc5c(s4)CCCC5)cccc32)c1` [Compound 42f], for which the IC50 is above 500 nM.

Take `Cn1cc(-c2cncc(O[C@H]3CCc4c(C(=O)Nc5ccc6c(c5)CNC6)cccc43)c2)cn1` [Compound 19u]: the IC50 is above 500 nM.

In the case of `CN(C)Cc1ccc(NC(=O)c2cccc3c2CC[C@@H]3Oc2cc(-c3cnn(C)c3)cnc2N)cc1` [Compound 5d], the IC50 is below 50 nM.

`CN1CCN(Cc2ccc(C(=O)Nc3cccc4c3CC[C@@H]4Nc3cncc(-c4cnn(C)c4)n3)cc2)CC1` [Compound 25f]: the concentration for half-maximal inhibition (IC50) fell in the range of 50 to 200 nM.

Take `Cn1cc(-c2cncc(N[C@H]3CCc4c3ccc(F)c4C(=O)Nc3cccc(C4CC4)c3)c2)cn1` [Compound 51a]: the IC50 was below 50 nM.

Take `Cc1cccc(NC(=O)c2cccc3c2CC[C@@H]3Oc2cnc3cn(C)nc3c2)c1F` [Compound 76aj]: the IC50 is below 50 nM.

Regarding `Cn1ncc2ncc(O[C@H]3CCc4c(Nc5cc(C(C)(C)C)on5)cccc43)cc21` [Compound 95, (S)-5-(tert-butyl)-N-(1-((1-methyl-1H-pyrazolo[4,3-b]pyridin-6-yl)oxy)-2,3-dihydro-1H-inden-4-yl) isoxazol-3-amine], the IC50 was in the range of 200 to 500 nM.

For `Cn1cc2ncc(N[C@H]3CCc4c(CNc5cccc(F)c5)cccc43)cc2n1` [Compound 96c], the half-inhibitory concentration (IC50) is above 500 nM.

For `CN(c1cnc2cn(C)nc2c1)[C@H]1CCc2c(C(=O)Nc3ccc4c(c3)OC(F)(F)O4)cccc21` [Compound 80u], the half-inhibitory concentration (IC50) is below 50 nM.

Take `Cn1cc(-c2cncc(NC3CC(F)c4c(NC(=O)c5ccc(C(F)(F)F)cc5)cccc43)c2)cn1` (stereo not drawn) [Compound 71, N-(3-fluoro-1-((5-(1-methyl-1H-pyrazol-4-yl)pyridin-3-yl)amino)-2,3-dihydro-1H-inden-4-yl)-4-(trifluoromethyl)benzamide]: the half-inhibitory concentration (IC50) was in the range of 200 to 500 nM.

Take `CN(C)Cc1cccc(C(=O)Nc2cccc3c2CC[C@@H]3Oc2cc(-c3cnn(C)c3)cnc2N)c1` [Compound 3j]: the IC50 is above 500 nM.

For the compound `Cc1ccc(NC(=O)c2cccc(C3CC3)c2)c2c1[C@@H](Oc1cnc3cnn(C)c3c1)CC2` [Compound 78b], the IC50 is above 500 nM.

Regarding `Cn1cc(-c2cncc(N[C@H]3CCc4c(Nc5cc(C(F)(F)F)nn5C)cccc43)c2)cn1` [Compound 42q], the half-inhibitory concentration (IC50) is above 500 nM.

`Cn1cc2ncc(N[C@H]3CCc4c(Nc5noc(C6(C)CCC6)n5)cccc43)cc2n1` [Compound 93n]: the half-inhibitory concentration (IC50) is below 50 nM.

For the compound `Cn1ncc2ncc(O[C@H]3CCc4c(C(=O)Nc5ccc6c(c5)OC(F)(F)O6)cccc43)cc21` [Compound 76ae], the IC50 is below 50 nM.

In the case of `CN1CCc2nc(Nc3cccc4c3CC[C@@H]4Nc3cncc(Cl)c3)sc2C1` [Compound 42g], the half-inhibitory concentration (IC50) was above 500 nM.

Turning to `Cc1c(Nc2cccc3c2CC[C@@H]3Nc2cncc(Cl)c2)noc1C(C)(C)C` [Compound 40d, (S)—N^4-(5-(ter-butyl)-4-methylisoxazol-3-yl)-N^1-(5-chloropyridin-3-yl)-2,3-dihydro-1H-indene-1,4-diamine], the concentration for half-maximal inhibition (IC50) lay in the range of 50 to 200 nM.

Take `Cn1cc2ncc(N[C@H]3CCc4c(Nc5noc(C67CC(C6)C7)n5)cccc43)cc2n1` [Compound 93q]: the IC50 was below 50 nM.

As to `Cn1cc(-c2cncc(N[C@H]3CCc4c(C(=O)NC5CCC(F)(F)CC5)cccc43)n2)cn1` [Compound 27f], the half-maximal inhibitory concentration (IC50) was below 50 nM.

On to `Cn1cc(-c2cncc(N[C@H]3CCc4c(NC(=O)OC5CCCCC5)cccc43)n2)cn1` [Compound 65c], for which the half-maximal inhibitory concentration (IC50) is below 50 nM.

Take `Cn1cc(-c2cncc(N[C@@H]3CCc4c(NC(=O)c5cccc(C(F)(F)F)c5F)cccc43)n2)cn1` [Compound 25d]: the half-maximal inhibitory concentration (IC50) was above 500 nM.

Regarding `CN(c1cnc2cnn(C)c2c1)[C@H]1CCc2c(C(=O)Nc3ccc4c(c3)OC(F)(F)O4)cccc21` [Compound 80i], the IC50 is 50 to 200 nM.

Consider `Cn1cc2ncc(N[C@H]3CCc4c(CNc5nc(C6CC6)cs5)cccc43)cc2n1` [Compound 96d], for which the IC50 is above 500 nM.

Turning to `Cn1cc(-c2cncc(NC3CC(=O)c4c(NC(=O)c5ccc(C(F)(F)F)cc5)cccc43)c2)cn1` (stereo not drawn) [Compound 70, N-(1-((5-(1-methyl-1H-pyrazol-4-yl)pyridin-3-yl)amino)-3-oxo-2,3-dihydro-1H-inden-4-yl)-4-(trifluoromethyl)benzamide], the IC50 is above 500 nM.

Turning to `Cn1cc(-c2cncc(N[C@H]3CCc4c(Nc5cc(C(C)(C)C)on5)ccc(F)c43)c2)cn1` [Compound 42s], the IC50 was below 50 nM.

On to `Cn1cc(-c2cncc(N[C@H]3CCc4c(C(=O)N5CCCCC5)cccc43)n2)cn1` [Compound 27b], for which the half-maximal inhibitory concentration (IC50) was above 500 nM.

In the case of `Cn1ncc2ncc(O[C@H]3CCc4c(C(=O)Nc5nn(C)c6ccccc56)cccc43)cc21` [Compound 76ao], the IC50 was below 50 nM.

Regarding `CN(C)Cc1cccc(NC(=O)c2cccc3c2CC[C@@H]3N(C)c2cncc(-c3cnn(C)c3)c2)c1` [Compound 22d], the 50% inhibitory concentration (IC50) lay within 50 to 200 nM.

As to `Cn1cc2ncc(N[C@H]3CCc4c(Nc5cc(C6(C)CCCC6)on5)cccc43)cc2n1` [Compound 91l], the half-inhibitory concentration (IC50) was below 50 nM.

Regarding `CN(c1cncc(-c2cnn(C)c2)c1)[C@H]1CCc2c(Nc3cc(C(C)(C)C)on3)cccc21` [Compound 49, (S)—N^4-(5-(tert-butyl)isoxazol-3-yl)-N^1-methyl-N1-(5-(1-methyl-1H-pyrazol-4-yl)pyridin-3-yl)-2,3-dihydro-1H-indene-1,4-diamine], the IC50 is above 500 nM.

With `Cn1cc(-c2cncc(N[C@H]3CCc4c(Nc5cc(C(C)(C)C(F)(F)F)on5)cccc43)c2)cn1` [Compound 42p], the concentration for half-maximal inhibition (IC50) is below 50 nM.

As for `COc1cccc(C(=O)Nc2cccc3c2OCCC3Oc2cc(-c3cnn(C)c3)cnc2N)c1` (stereo not drawn) [Compound 2c], the IC50 is 200 to 500 nM.

On to `Cn1cc2ncc(N[C@H]3CCc4c(C(=O)Nc5cccc(C6CC6)c5)cccc43)cc2n1` [Compound 74a], for which the IC50 is below 50 nM.

As for `Cn1cc(-c2cncc(N[C@H]3CCc4c(Nc5nc(C(C)(C)C)cs5)cccc43)n2)cn1` [Compound 36c], the IC50 is below 50 nM.

A word on the IC50: it is the midpoint of a concentration-inhibition curve.

Source of the values: patent US20260125359A1, “HETEROARYL COMPOUNDS AS MULTI-TARGET PROTEIN KINASE INHIBITORS” (FUJIAN HAIXI PHARMACEUTICALS CO., LTD., priority 2023, published 2026).
